# Source: US20230364057A1, “BACTERIAL DNA GYRASE INHIBITORS AND METHODS OF USE THEREOF” (THE FLORIDA INTERNATIONAL UNIVERSITY BOARD OF TRUSTEES, priority 2022, published 2023)
# Like-named read-outs stand apart in the source and are kept apart here.
# Columns and labels:
# E. coli DNA gyrase [1] = molecular target: T1, E. coli DNA gyrase (Escherichia coli (strain K12), UniProt P0AES4+P0AES6); assay: Agarose gel-based DNA gyrase inhibition assay; assay type: biochemical
# Procedure: 100 ng of DNA gyrase was used to supercoil the rx pAB1 in the presence of different concentrations of a gyrase inhibitor. […] Samples were analyzed by electrophoresis in 1% w/v agarose gels followed by ethidium bromide staining and photographed under UV light.
# E. coli DNA gyrase [2] = molecular target: T1, E. coli DNA gyrase; assay: biochemical; assay type: biochemical
# S. aureus (ATCC 14775) = assay: Minimum inhibitory concentration, broth microdilution; settings: for MIC: Staphylococcus aureus
# MRSA = assay: as above; settings: for MIC: Staphylococcus aureus, MRSA, read-out: Minimum Inhibitory Concentration S.aureus MRSA
# B. subtilis (ATCC 6633) = assay: as above; settings: Bacillus subtilis, ATCC6633, read-out: Minimum Inhibitory Concentration B.subtilis
# in vitro [3] = settings: mouse
# in vitro [4] = settings: human
# Mtb DNA gyrase = Mtb DNA gyrase (Mycobacterium tuberculosis (strain ATCC 25618 / H37Rv), UniProt P9WG45+P9WG47); assay: Mtb DNA gyrase inhibition assay (gel-based); assay type: biochemical; settings: Table 5, Mtb gyrase; read-out: IC50 (µM) Mtb
# Procedure: The IC50 against E. coli (A) and Mtb (C) gyrase were determined using the gel-based gyrase inhibition assays. The gyrase mediated DNA cleavage assays (B and D) were performed using pBR322. (A) 229 inhibits E. coli gyrase. Lane 1, rx pAB1. […] Lane 1, rx pAB1. […] 100 µM of CPDs were used. Symbols rx, nk, In, and sc represent relaxed, nicked, linear, and supercoiled DNA, respectively.
# Agarose gel-based DNA gyrase inhibition assays were performed in 30 µL of 1 ×gyrase buffer (35 mM Tris-HCl, 24 mM KCl, 4 mM MgCl2, 2 mM DTT, 1.75 mM ATP, 0.1 mg/mL BSA, 6.5% glycerol, pH7.5) containing 400 ng of rx pAB1 at 37° C. 100 ng of DNA gyrase was used to supercoil the rx pAB1 in the presence of different concentrations of a gyrase inhibitor. After 15 minutes of incubation with the inhibitor at 37° C., all reactions were stopped with 1 µL of stop solution (3% SDS and 250 mM EDTA). Samples were analyzed by electrophoresis in 1% w/v agarose gels followed by ethidium bromide staining and photographed under UV light.
# Mtb = Mtb whole cell assay (% inhibition, MIC); assay type: cell-based, Mycobacterium tuberculosis; settings: Mycobacterium tuberculosis; Table 5 (same values in Table 6 at 20 µM)
# E. coli (ATCC 25922) = assay: Minimum inhibitory concentration, broth microdilution; settings: Escherichia coli, ATCC25922, read-out: Minimum Inhibitory Concentration E. coli, Tables 3a-3c
# Procedure: Antibacterial minimum inhibitory concentrations (MICs) were obtained from three independent experiments using broth microdilution methods in 96-well plates according to Clinical and Laboratory Standards Institute guidelines. Cells were culture from singles colonies in MHIIB medium for 24 h at 37° C. in agitation (200 RPM). The cultures were then diluted using the same media to reach an OD600 of 0.1. Then, 50 µL of the diluted cultures were added to the plates holding 50 µL of serially diluted compounds in MHIIB. The plates were incubated at 37° C. for 20 h. The starting inoculum was fixated to 10^5 colony-forming units per ml.
# [5] = ATCC14775, read-out: Minimum Inhibitory Concentration S.aureus
# [6] = IC50 (50-200 µM), bin of Table 2
SMILES,inhibition of E. coli DNA gyrase activities (E. coli DNA gyrase [1]; 200 µM of compounds),MIC (S. aureus (ATCC 14775); [5]),MIC (MRSA),MIC (B. subtilis (ATCC 6633)),inhibition of E. coli DNA gyrase activities (E. coli DNA gyrase [1]; 50 µM of compounds),IC50 (in vitro [3]),IC50 (in vitro [4]),IC50 (E. coli DNA gyrase [2]; [6]),other results
Cc1ccccc1NC1=C/C(=N/S(=O)(=O)c2ccc(C(=O)O)cc2)c2ccccc2C1=O [Compound 4],completely inhibited,50 µM,50 µM,100 µM,–,–,–,–,"IC50 (E. coli DNA gyrase [2]; IC50 ([…]-50 µM), bin of Table 2): 25 to 50 µM"
"Cc1cc(C)c2c(c1)C(=NNc1ccc(C(=O)O)cc1)C(O)=N2 [Compound 9, 4-[2-(5,7-Dimethyl-2-oxoindol-3-yl)hydrazinyl]benzoic acid]",completely inhibited,3.12 µM,3.12 µM,25 µM,completely inhibited,–,–,–,inhibition of E. coli DNA gyrase activities (E. coli DNA gyrase [2]): potent gyrase inhibitor; growth of S. aureus (S. aureus (ATCC 14775)): strongly inhibited the growth; growth of MRSA (MRSA): strongly inhibited the growth
CSc1nc(SCC(=O)O)c2sc3nc(-c4ccccc4)c4c(c3c2n1)CCC4 [Compound 19],completely inhibited,–,–,–,completely inhibited,> 200 µM,> 200 µM,–,–
Cc1c(CCC(=O)O)c(=O)oc2cc3occ(-c4ccc(Cl)cc4)c3cc12 [Compound 25],completely inhibited,–,–,–,almost completely inhibited,–,–,–,"inhibition of E. coli DNA gyrase activities (E. coli DNA gyrase [2]): potent bacterial DNA gyrase inhibitors; IC50 (E. coli DNA gyrase [2]; IC50 (µM) EC, Table 5, E. coli gyrase): 11.5 µM; IC50 (Mtb DNA gyrase): 65 µM; inhibition at 20 µM (Mtb): 0.8%; MIC (S. aureus (ATCC 14775); ATCC14775, read-out: MIC (µM) SA): > 200 µM"
CC(=O)Nc1ccc(S(=O)(=O)Nc2nc3ccccc3nc2Nc2ccc(C(=O)O)c(O)c2)cc1 [Compound 30],–,–,–,–,–,> 200 µM,> 200 µM,–,–
O=C1/C(=C\c2ccc(O)cc2)SC(=S)N1Cc1ccccc1 [Compound 44],completely inhibited,12.5 µM,25 µM,25 µM,–,–,–,50 to 200 µM,–
CN1C[C@H](CNC(=O)OCc2ccccc2)C[C@@H]2c3cccc4c3c(cn4C)C[C@H]21 [Compound 45],almost completely inhibited,100 µM,100 µM,100 µM,–,–,–,50 to 200 µM,–
O=C(O)c1cccc(-c2ccc(/C=c3/sc4nc5ccccc5n4c3=O)o2)c1 [Compound 47],completely inhibited,–,–,–,completely inhibited,> 200 µM,> 200 µM,–,–
CC(=O)Nc1ccc(/C=C2\Sc3ccccc3C2=O)cc1 [Compound 54],almost completely inhibited,–,–,–,–,> 200 µM,> 200 µM,50 to 200 µM,–
Cc1ccc(-c2csc(NC(=O)c3cccc(C)c3)c2C(=O)O)cc1 [Compound 58],completely inhibited,100 µM,100 µM,100 µM,–,–,–,50 to 200 µM,–
Cc1cc(/C=C2\SC(=S)NC2=O)c(C)n1C [Compound 64],completely inhibited,–,–,–,–,> 200 µM,> 200 µM,50 to 200 µM,–
COc1cc2ccccc2cc1C(=O)NC(=S)Nc1ccc(C(=O)O)cc1 [Compound 72],–,–,–,–,–,–,–,–,MIC (E. coli (ATCC 25922)): 100 µM
O=C(Nc1cccc(C2=NCCN2)c1)Nc1cccc(C2=NCCN2)c1 [Compound 79],–,200 µM,200 µM,100 µM,–,–,–,50 to 200 µM,MIC (E. coli (ATCC 25922)): 200 µM
